For test [1], the target named is T1, Phosphatidylinositol 4,5-bisphosphate 3-kinase catalytic subunit delta isoform (Homo sapiens, UniProt O00329).
T1 sequence (O00329 whole entry): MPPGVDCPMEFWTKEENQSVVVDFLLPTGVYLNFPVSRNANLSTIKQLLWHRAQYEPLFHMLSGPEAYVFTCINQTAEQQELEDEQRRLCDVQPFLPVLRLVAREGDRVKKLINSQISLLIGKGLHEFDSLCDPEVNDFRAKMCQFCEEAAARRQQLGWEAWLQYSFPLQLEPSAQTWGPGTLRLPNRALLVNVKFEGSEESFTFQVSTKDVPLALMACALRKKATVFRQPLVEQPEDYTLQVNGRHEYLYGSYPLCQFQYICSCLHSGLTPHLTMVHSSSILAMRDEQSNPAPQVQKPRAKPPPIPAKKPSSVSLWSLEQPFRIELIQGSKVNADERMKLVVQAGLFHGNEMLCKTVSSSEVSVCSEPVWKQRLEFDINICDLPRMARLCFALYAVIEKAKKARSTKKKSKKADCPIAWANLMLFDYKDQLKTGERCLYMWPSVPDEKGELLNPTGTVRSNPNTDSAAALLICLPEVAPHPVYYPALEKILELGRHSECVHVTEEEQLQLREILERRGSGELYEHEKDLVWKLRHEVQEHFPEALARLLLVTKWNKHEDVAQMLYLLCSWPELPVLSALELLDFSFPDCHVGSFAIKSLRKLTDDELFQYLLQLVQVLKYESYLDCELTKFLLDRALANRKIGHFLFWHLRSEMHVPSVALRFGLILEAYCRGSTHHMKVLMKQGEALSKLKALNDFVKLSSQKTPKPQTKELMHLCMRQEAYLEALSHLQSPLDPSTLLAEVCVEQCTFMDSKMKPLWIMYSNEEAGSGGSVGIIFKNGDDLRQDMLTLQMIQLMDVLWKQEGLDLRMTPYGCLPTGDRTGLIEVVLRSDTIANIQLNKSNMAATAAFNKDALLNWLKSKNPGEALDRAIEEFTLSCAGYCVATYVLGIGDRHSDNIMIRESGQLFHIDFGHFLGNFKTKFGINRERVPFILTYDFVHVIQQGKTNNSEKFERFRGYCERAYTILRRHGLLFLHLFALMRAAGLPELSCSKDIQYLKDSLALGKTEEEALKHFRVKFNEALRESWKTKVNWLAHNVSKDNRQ
Nature of the test: Inhibition of PI3Kdelta (unknown origin) using PIP2 as substrate in presence of ATP measured after 60 mins by ADP-Glo assay. For orientation: ADP-Glo turns the ADP formed in a reaction into a luminescent signal.

In test [2] the target is Phosphatidylinositol 4,5-bisphosphate 3-kinase catalytic subunit alpha isoform (Homo sapiens, UniProt P42336). Put plainly: Inhibition of PI3Kalpha (unknown origin) using PIP2 as substrate in presence of ATP measured after 60 mins by ADP-Glo assay.
Phosphatidylinositol 4,5-bisphosphate 3-kinase catalytic subunit alpha isoform, sequence (P42336 whole entry, canonical isoform): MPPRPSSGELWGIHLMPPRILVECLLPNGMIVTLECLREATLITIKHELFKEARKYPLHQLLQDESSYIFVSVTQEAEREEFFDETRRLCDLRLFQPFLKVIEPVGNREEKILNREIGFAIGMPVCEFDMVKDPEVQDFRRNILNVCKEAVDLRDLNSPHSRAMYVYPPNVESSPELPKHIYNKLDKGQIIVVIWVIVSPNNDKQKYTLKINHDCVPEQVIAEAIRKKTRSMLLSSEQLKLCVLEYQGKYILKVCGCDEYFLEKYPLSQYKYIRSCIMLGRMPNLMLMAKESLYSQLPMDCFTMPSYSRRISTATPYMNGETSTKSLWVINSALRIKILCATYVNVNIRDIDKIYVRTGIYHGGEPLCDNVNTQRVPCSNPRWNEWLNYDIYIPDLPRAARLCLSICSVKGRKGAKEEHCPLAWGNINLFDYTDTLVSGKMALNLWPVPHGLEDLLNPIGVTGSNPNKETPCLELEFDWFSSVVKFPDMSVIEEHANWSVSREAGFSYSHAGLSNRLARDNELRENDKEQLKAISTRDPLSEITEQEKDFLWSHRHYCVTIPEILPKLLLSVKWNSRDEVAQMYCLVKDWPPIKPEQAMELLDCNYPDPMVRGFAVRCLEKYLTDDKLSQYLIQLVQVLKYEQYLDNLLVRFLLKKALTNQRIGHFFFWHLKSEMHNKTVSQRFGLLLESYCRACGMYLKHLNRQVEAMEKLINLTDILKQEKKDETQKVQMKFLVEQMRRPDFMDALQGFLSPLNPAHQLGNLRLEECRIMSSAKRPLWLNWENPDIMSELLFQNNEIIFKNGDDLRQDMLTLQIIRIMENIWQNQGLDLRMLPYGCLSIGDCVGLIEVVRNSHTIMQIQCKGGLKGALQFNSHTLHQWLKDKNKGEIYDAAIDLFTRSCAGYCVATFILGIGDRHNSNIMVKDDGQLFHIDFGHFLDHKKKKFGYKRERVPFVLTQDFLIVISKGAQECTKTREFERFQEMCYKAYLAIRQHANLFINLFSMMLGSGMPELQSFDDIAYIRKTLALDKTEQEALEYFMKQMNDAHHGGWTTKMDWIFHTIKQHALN
Test [3] addresses Phosphatidylinositol 4,5-bisphosphate 3-kinase catalytic subunit gamma isoform (Homo sapiens, UniProt P48736). Nature of the test: Inhibition of PI3Kgamma (unknown origin) using PIP2 as substrate in presence of ATP measured after 60 mins by ADP-Glo assay.
Test [4] concerns the target Phosphatidylinositol 4,5-bisphosphate 3-kinase catalytic subunit beta isoform (Homo sapiens, UniProt P42338). Nature of the test: Inhibition of PI3Kbeta (unknown origin) using PIP2 as substrate in presence of ATP measured after 60 mins by ADP-Glo assay.
Test [5] is described as follows: Induction of apoptosis in human MOLM16 cells assessed as necrotic cells at 2 uM incubated for 48 hrs by Annexin V and propidium iodide Staining based assay (reference value: 0.44 %). It is filed as functional, MOLM-16.
The nature of test [6]: Induction of cell cycle arrest in human MOLM16 cells assessed as accumulation at G1 phase at 2 uM incubated for 24 hrs by propidium iodide /RNase staining based flow cytometry(Rvb =46.8 %). It counts as functional, MOLM-16.
The nature of test [7]: Induction of cell cycle arrest in human MOLM16 cells assessed as accumulation at G2 phase at 2 uM incubated for 24 hrs by propidium iodide /RNase staining based flow cytometry(Rvb =14.7 %). It counts as functional, MOLM-16. On the technique in general: Flow cytometry measures light scatter and fluorescence of single cells or particles in a stream.
The nature of test [8]: Induction of apoptosis in human MOLM16 cells assessed as viable cells at 1 uM incubated for 48 hrs by Annexin V and propidium iodide Staining based assay (reference value: 76.3 %). It is filed as functional, MOLM-16. The settings on record: read-out: Activity.
Test [9] in a line: Induction of apoptosis in human MOLM16 cells assessed as early apoptotic cells at 1 uM incubated for 48 hrs by Annexin V and propidium iodide Staining based assay (reference value: 16.4 %). It counts as functional, MOLM-16.
Test [10] is described as follows: Induction of cell cycle arrest in human MOLM16 cells assessed as accumulation at S phase at 2 uM incubated for 24 hrs by propidium iodide /RNase staining based flow cytometry(Rvb =31.8 %). It is filed as functional, MOLM-16.
The nature of test [11]: Induction of cell cycle arrest in human MOLM16 cells assessed as accumulation at subG1 phase at 1 uM incubated for 24 hrs by propidium iodide /RNase staining based flow cytometry(Rvb =4.02 %). It is filed as functional, MOLM-16.
The nature of test [12]: Induction of cell cycle arrest in human MOLM16 cells assessed as accumulation at G1 phase at 5 uM incubated for 24 hrs by propidium iodide /RNase staining based flow cytometry(Rvb =46.8 %). It is filed as functional, MOLM-16.
Test [13] in a line: Induction of apoptosis in human MOLM16 cells assessed as early apoptotic cells at 5 uM incubated for 48 hrs by Annexin V and propidium iodide Staining based assay (reference value: 16.4 %). It is filed as functional, MOLM-16.
Test [14] is described as follows: Induction of cell cycle arrest in human MOLM16 cells assessed as accumulation at S phase at 1 uM incubated for 24 hrs by propidium iodide /RNase staining based flow cytometry(Rvb =31.8 %). It counts as functional, MOLM-16.
Test [15] is described as follows: Induction of apoptosis in human MOLM16 cells assessed as necrotic cells at 5 uM incubated for 48 hrs by Annexin V and propidium iodide Staining based assay (reference value: 0.44 %). It is filed as functional, MOLM-16.
A short description of test [16]: Induction of cell cycle arrest in human MOLM16 cells assessed as accumulation at subG1 phase at 5 uM incubated for 24 hrs by propidium iodide /RNase staining based flow cytometry(Rvb =4.02 %). It is filed as functional, MOLM-16.
Test [17] in a line: Induction of apoptosis in human MOLM16 cells assessed as late apoptotic cells at 5 uM incubated for 48 hrs by Annexin V and propidium iodide Staining based assay (reference value: 6.77 %). It is filed as functional, MOLM-16.
Test [18] is described as follows: Induction of cell cycle arrest in human MOLM16 cells assessed as accumulation at G2 phase at 5 uM incubated for 24 hrs by propidium iodide /RNase staining based flow cytometry(Rvb =14.7 %). It counts as functional, MOLM-16.
The nature of test [19]: Induction of apoptosis in human MOLM16 cells assessed as early apoptotic cells at 2 uM incubated for 48 hrs by Annexin V and propidium iodide Staining based assay (reference value: 16.4 %). It is filed as functional, MOLM-16.
A short description of test [20]: Induction of apoptosis in human MOLM16 cells assessed as necrotic cells at 1 uM incubated for 48 hrs by Annexin V and propidium iodide Staining based assay (reference value: 0.44 %). It counts as functional, MOLM-16.
Test [21] can be described thus: Induction of cell cycle arrest in human MOLM16 cells assessed as accumulation at G2 phase at 1 uM incubated for 24 hrs by propidium iodide /RNase staining based flow cytometry(Rvb =14.7 %). It counts as functional, MOLM-16.
A short description of test [22]: Induction of apoptosis in human MOLM16 cells assessed as late apoptotic cells at 1 uM incubated for 48 hrs by Annexin V and propidium iodide Staining based assay (reference value: 6.77 %). It is filed as functional, MOLM-16.
Test [23] can be described thus: Induction of cell cycle arrest in human MOLM16 cells assessed as accumulation at G1 phase at 1 uM incubated for 24 hrs by propidium iodide /RNase staining based flow cytometry(Rvb =46.8 %). It counts as functional, MOLM-16.
The nature of test [24]: Induction of cell cycle arrest in human MOLM16 cells assessed as accumulation at S phase at 5 uM incubated for 24 hrs by propidium iodide /RNase staining based flow cytometry(Rvb =31.8 %). It counts as functional, MOLM-16.
A short description of test [25]: Induction of cell cycle arrest in human MOLM16 cells assessed as accumulation at subG1 phase at 2 uM incubated for 24 hrs by propidium iodide /RNase staining based flow cytometry(Rvb =4.02 %). It counts as functional, MOLM-16.
The nature of test [26]: Induction of apoptosis in human MOLM16 cells assessed as late apoptotic cells at 2 uM incubated for 48 hrs by Annexin V and propidium iodide Staining based assay (reference value: 6.77 %). It counts as functional, MOLM-16.
Test [27] is described as follows: Induction of apoptosis in human MOLM16 cells assessed as viable cells at 5 uM incubated for 48 hrs by Annexin V and propidium iodide Staining based assay (reference value: 76.3 %). It is filed as functional, MOLM-16. The note with it: read-out: Activity.
The nature of test [28]: Induction of apoptosis in human MOLM16 cells assessed as viable cells at 2 uM incubated for 48 hrs by Annexin V and propidium iodide Staining based assay (reference value: 76.3 %). It counts as functional, MOLM-16. The note with it: read-out: Activity.

Phosphatidylinositol 4,5-bisphosphate 3-kinase catalytic subunit beta isoform, sequence (P42338 whole entry, canonical isoform): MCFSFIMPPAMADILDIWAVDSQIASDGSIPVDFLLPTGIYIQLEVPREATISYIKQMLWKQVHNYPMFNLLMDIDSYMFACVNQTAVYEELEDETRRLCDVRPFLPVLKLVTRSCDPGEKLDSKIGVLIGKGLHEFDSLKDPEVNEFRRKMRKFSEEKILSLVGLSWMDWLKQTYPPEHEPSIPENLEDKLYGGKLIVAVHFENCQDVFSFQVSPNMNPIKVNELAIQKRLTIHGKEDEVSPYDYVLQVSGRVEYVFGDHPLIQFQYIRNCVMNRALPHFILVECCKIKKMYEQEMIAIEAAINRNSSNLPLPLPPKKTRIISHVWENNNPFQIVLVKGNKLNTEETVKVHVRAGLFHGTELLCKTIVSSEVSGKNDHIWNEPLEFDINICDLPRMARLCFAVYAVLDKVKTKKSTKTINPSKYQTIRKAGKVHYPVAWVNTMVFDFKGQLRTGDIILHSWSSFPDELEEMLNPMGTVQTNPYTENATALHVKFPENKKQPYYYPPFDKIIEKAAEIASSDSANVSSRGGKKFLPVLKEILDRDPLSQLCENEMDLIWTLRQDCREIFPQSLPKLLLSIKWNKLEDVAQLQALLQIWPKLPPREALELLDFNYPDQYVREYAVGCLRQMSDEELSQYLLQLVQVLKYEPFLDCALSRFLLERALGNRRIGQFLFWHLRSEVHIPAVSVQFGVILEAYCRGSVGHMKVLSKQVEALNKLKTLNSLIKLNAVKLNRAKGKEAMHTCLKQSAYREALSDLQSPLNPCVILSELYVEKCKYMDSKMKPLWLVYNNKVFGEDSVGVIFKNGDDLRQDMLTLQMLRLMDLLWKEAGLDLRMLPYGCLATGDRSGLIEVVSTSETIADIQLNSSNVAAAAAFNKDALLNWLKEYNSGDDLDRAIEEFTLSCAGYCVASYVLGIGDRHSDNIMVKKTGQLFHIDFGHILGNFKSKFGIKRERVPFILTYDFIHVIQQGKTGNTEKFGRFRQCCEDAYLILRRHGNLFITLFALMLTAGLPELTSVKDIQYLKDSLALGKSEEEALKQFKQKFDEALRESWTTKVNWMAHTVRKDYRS
Phosphatidylinositol 4,5-bisphosphate 3-kinase catalytic subunit gamma isoform, sequence (P48736 whole entry, canonical isoform): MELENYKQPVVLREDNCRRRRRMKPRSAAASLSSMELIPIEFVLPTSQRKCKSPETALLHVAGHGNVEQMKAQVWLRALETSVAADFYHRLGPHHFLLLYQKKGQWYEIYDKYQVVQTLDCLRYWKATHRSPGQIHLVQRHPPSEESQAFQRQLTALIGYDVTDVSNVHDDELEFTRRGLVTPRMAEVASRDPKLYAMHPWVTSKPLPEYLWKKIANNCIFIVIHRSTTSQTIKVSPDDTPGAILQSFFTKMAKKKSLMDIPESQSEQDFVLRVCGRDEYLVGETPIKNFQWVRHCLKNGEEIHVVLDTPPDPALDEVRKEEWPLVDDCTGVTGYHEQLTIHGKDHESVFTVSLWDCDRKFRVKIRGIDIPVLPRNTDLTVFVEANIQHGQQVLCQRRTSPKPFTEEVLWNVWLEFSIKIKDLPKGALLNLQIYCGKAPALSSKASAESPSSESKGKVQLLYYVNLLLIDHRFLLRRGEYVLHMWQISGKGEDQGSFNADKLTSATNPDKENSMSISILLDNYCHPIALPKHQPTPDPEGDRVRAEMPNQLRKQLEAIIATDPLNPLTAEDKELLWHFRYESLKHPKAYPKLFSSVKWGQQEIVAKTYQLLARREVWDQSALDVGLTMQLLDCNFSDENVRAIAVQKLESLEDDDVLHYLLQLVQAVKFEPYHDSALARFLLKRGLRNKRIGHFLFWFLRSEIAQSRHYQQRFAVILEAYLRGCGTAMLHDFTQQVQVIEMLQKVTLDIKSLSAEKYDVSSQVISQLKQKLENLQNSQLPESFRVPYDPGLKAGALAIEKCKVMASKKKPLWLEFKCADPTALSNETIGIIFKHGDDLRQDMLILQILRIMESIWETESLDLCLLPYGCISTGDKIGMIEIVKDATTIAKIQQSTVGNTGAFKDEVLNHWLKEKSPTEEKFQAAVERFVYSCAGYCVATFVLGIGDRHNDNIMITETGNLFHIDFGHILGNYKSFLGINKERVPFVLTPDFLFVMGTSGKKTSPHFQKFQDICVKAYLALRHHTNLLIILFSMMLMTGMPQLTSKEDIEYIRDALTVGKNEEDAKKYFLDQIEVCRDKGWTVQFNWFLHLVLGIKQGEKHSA

In the case of `O=S(=O)(Nc1cc(-c2cnc3[nH]ccc3n2)cnc1Cl)c1ccccc1`, the half-maximal inhibitory concentration (IC50) (commonly the concentration needed to halve the response being measured) in test [1] was 49 nM; in test [2], 59 nM; in test [3] it was 57 nM; in test [4], 80 nM.
For the compound `O=S(=O)(Nc1cc(-c2cnc3c(c2)CCN3)cnc1Cl)c1ccccc1`, the IC50 in [1] came out at 123 nM.
As for `O=S(=O)(Nc1cc(-c2cnc3[nH]cnc3c2)cnc1Cl)c1ccccc1`, the IC50 in [1] stood at 16 nM; in test [2], 28 nM; in test [3], 21 nM; in [4], 26 nM.
Take `O=S(=O)(Nc1cc(-c2ccc3scnc3c2)cnc1Cl)c1ccccc1`: the IC50 in test [1] stood at 604 nM.
In the case of `O=S(=O)(Nc1cc(-c2cnc3scnc3c2)cnc1Cl)c1ccccc1`, in [1], the half-inhibitory concentration (IC50) was found to be 204 nM.
Same read-out and setting: for `O=S(=O)(Nc1cc(-c2ccc3occc3c2)cnc1Cl)c1ccccc1` the value was 17 nM; for `O=S(=O)(Nc1cc(-c2ccc3[nH]cnc3c2)cnc1Cl)c1ccccc1`, 28 nM; for `O=S(=O)(Nc1cc(-c2ccc3[nH]ncc3c2)cnc1Cl)c1ccccc1`, 36 nM.
On the same count and under the same terms, then `O=S(=O)(Nc1cc(-c2ccc3[nH]ncc3n2)cnc1Cl)c1ccccc1`, with 294 nM; and `O=S(=O)(Nc1cc(-c2ccc3c(c2)CCN3)cnc1Cl)c1ccccc1`, with 492 nM.
Turning to `CC[C@H](Nc1ncnc2[nH]cnc12)c1nc2cccc(F)c2c(=O)n1-c1ccccc1` [IDELALISIB], the Activity in [5] is given as 0.5%; in [6] it was 48.4%; in test [7], 12.4%; in test [9], 13.9%; in test [10], 32.9%; in test [11], 3.44%. In addition, the Activity is 49.6% in test [12]; 14.8% in test [13]; 31.7% in test [14]; 1.49% in test [15]; 2.6% in test [16]; 9.19% in test [17]. Also, the Activity in test [18] was 13.6%; in test [19] it was 18.2%; in [20] it was 1.14%; in test [21], 13.9%; in test [22], 7.95%; in test [23], 47.9%. Further, the Activity was found to be 32.8% in test [24], 5.71% in [25] and 10.1% in test [26]. Further, the viability at 1 µM in [8] was 77%. Moreover, the viability at 5 µM in test [27] was 74.6%. Also, the viability at 2 µM in test [28] was found to be 73.2%.
Turning to `O=S(=O)(Nc1cc(-c2ccc3ocnc3c2)cnc1Cl)c1ccccc1`, the IC50 in [1] turned out to be 37 nM.
`O=S(=O)(Nc1cc(-c2ccc3[nH]nnc3c2)cnc1Cl)c1ccccc1`: the concentration for half-maximal inhibition (IC50) in test [1] amounted to 15 nM.
The same measure, in the same setting: then `O=S(=O)(Nc1cc(-c2cc3cc[nH]c3cn2)cnc1Cl)c1ccccc1`, with 1310 nM; and `O=S(=O)(Nc1cc(-c2ccc3[nH]ccc3c2)cnc1Cl)c1ccccc1`, with 334 nM; and `O=S(=O)(Nc1cc(-c2ccc3sccc3c2)cnc1Cl)c1ccccc1`, with 859 nM.
The same measure, in the same setting: then `O=S(=O)(Nc1cc(-c2ccc3[nH]ccc3n2)cnc1Cl)c1ccccc1`, with 3060 nM.
As for `O=S(=O)(Nc1cc(-c2cnc3occc3c2)cnc1Cl)c1ccccc1`, the IC50 in test [1] came to 209 nM.
On the same count and under the same terms, for `O=S(=O)(Nc1cc(-c2cc3cn[nH]c3cn2)cnc1Cl)c1ccccc1` the value was 527 nM.

For the origin of these results see ChEMBL document CHEMBL4840313, “Bioisosteric replacements of the indole moiety for the development of a potent and selective PI3Kδ inhibitor: Design, synthesis and biological evaluation” (Eur J Med Chem, 2021).
